Reference: patent US6048856A, “Heterocyclic compounds” (Novo Nordisk A/S, priority 1997, dated 2000)
Counter-ions that a name gives are not always drawn.

Test system: histamine induced paw oedema
Test: Histamine induced paw oedema test in rats
Format: in vivo, male Sprague-Dawley rats
Details: Rattus norvegicus, ip; intraperitoneal, 15 minutes before anaesthetics; paw swelling 20 minutes after histamine 50 microliter
Method: Compounds of formula I may be used to treat all painful, hyperalgesic and/or inflammatory conditions in which C-fibres play a pathophysiological role by eliciting neurogenic pain or inflammation, i.e.:
I. Histamine Induced Paw Oedema
The rat histamine paw oedema test was performed essentially as described by Amann et al. (Europ. J. Pharmacol. 279, 227-231, 1995). In brief 250-300 g male Sprague-Dawley rats were anaesthetized with pentobarbital sodium, and placed on a 32 degree Celsius heated table. Ten minutes later histamine (50 micoliter, 3 mg/ml) was injected in the right hind paw and 20 minutes hereafter the paw swelling was determined by water plethysmography (Ugo Basile). Test compounds were administered intraperitoneally at 15 minutes before the anaesthetics.
Values for inhibition of histamine induced oedema response for some representative compounds are recorded in table 1.

Compound `N#CC(c1ccccc1)C1CCN(CCC=C2c3ccccc3CCc3ccccc32)CC1` (stereo not shown) [Example 5, 2-(1-(3-(10,11-Dihydro-5H-dibenzo[a,d]cyclohepten-5-ylidene)-1-propyl)-4-piperidyl)-2-phenylacetonitrile hydrochloride] has an inhibition at 1 mg/kg of 30%.
